# According to US20080051420A1, “New Compounds 317” (AstraZeneca AB, priority 2006, published 2008):
# Molecular target: T1, human β-secretase (Homo sapiens, UniProt P56817)
# T1 construct: The soluble part of the human β-secretase (AA 1-AA 460) was cloned; made in house
# Assay: TR-FRET assay (β-secretase enzyme, sBACE-Fc)
# Type: biochemical
# Details: not given
# Experimental: The enzyme used in the IGEN Cleavage-, Fluorescent-, TR-FRET- and BiaCore assays is described as follows:
# The soluble part of the human β-secretase (AA 1-AA 460) was cloned into the ASP2-F10-1-IRES-GFP-neoK mammalian expression vector. The gene was fused to the Fc domain of IgG1 (affinity tag) and stably cloned into HEK 293 cells. Purified sBACE-Fc is stored in Tris buffer, pH 9.2 and has a purity of 95%.
# Enzyme was diluted to 6 μg/mL and the substrate (Europium)[…](Qsy7) to 200 nM in reaction buffer (NaAcetate, chaps, triton x-100, EDTA pH 4.5). Compounds were diluted to the desired concentration in dimethyl sulfoxide (final dimethyl sulfoxide concentration in assay is 5%). […] Enzyme (9 μL) and 1 μL of compound in dimethyl sulfoxide was added to the plate, mixed and pre-incubated for 10 min. Substrate (10 μL) was added and the reaction proceeded in the dark for 15 min at RT. The reaction was stopped with the addition of 7 μL NaAcetate, pH 9. […] The dimethyl sulfoxide control defined the 100% activity level and 0% activity was defined by exclusion of the enzyme (using reaction buffer instead).
# T1 sequence (P56817 22-460): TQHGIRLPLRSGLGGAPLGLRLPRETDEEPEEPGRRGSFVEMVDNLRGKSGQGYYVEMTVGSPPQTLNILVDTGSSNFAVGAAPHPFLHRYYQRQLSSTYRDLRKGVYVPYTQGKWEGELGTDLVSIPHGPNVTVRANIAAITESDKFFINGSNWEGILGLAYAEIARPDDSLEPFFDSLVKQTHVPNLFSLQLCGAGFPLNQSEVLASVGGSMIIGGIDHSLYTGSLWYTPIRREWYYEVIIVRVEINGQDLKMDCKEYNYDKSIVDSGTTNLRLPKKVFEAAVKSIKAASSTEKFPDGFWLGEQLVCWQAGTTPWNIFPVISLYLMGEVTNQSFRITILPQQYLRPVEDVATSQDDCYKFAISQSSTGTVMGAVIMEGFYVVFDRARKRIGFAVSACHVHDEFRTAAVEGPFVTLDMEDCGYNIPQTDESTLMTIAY
row,SMILES,IC50
1,"COc1ccc(C2(c3cccc(-c4cc(OC)cc(OS(C)(=O)=O)c4)c3)N=C(N)N3CCN=C32)cc1 (stereo not shown) [Example 73, 3′-[5-Amino-7-(4-methoxyphenyl)-2,7-dihydro-3H-imidazo[1,5-a]imidazol-7-yl]-5-methoxybiphenyl-3-yl methanesulfonate acetate]",190 nM

# Same assay, conditions: read-out: IC50 in TR-FRET assay
row,SMILES,IC50
1,"CCCS(=O)(=O)Oc1ccc(C2(c3cccc(-c4cccc(C(F)(F)F)c4)c3)N=C(N)N3CCCN=C32)cc1 (stereo not shown) [Example 60, 4-{6-Amino-8-[3′-(trifluoromethyl)biphenyl-3-yl]-2,3,4,8-tetrahydroimidazo[1,5-a]pyrimidin-8-yl}phenyl propane-1-sulfonate 0.5 acetate]",493 nM
2,"CCCS(=O)(=O)Oc1ccc(C2(c3cccc(-c4ccc(F)c(OC)c4)c3)N=C(N)N3CCCN=C32)cc1 (stereo not shown) [Example 61, 4-[6-Amino-8-(4′-fluoro-3′-methoxybiphenyl-3-yl)-2,3,4,8-tetrahydroimidazo[1,5-a]pyrimidin-8-yl]phenyl propane-1-sulfonate 0.75 acetate]",671 nM
3,"CCCS(=O)(=O)Oc1ccc(C2(c3cccc(-c4cccc(Cl)c4F)c3)N=C(N)N3CCCN=C32)cc1 (stereo not shown) [Example 62, 4-[6-Amino-8-(3′-chloro-2′-fluorobiphenyl-3-yl)-2,3,4,8-tetrahydroimidazo[1,5-a]pyrimidin-8-yl]phenyl propane-1-sulfonate 0.75 acetate]",254 nM
4,"CCCS(=O)(=O)Oc1ccc(C2(c3cccc(-c4cc(Cl)ccc4Cl)c3)N=C(N)N3CCCN=C32)cc1 (stereo not shown) [Example 63, 4-[6-Amino-8-(2′,5′-dichlorobiphenyl-3-yl)-2,3,4,8-tetrahydroimidazo[1,5-a]pyrimidin-8-yl]phenyl propane-1-sulfonate 0.75 acetate]",912 nM
5,"CCCS(=O)(=O)Oc1ccc(C2(c3cccc(-c4cncc(OC)c4)c3)N=C(N)N3CCCN=C32)cc1 (stereo not shown) [Example 64, 4-{6-Amino-8-[3-(5-methoxypyridin-3-yl)phenyl]-2,3,4,8-tetrahydroimidazo[1,5-a]pyrimidin-8-yl}phenyl propane-1-sulfonate 0.75 acetate]",96 nM
6,"COc1cccc(-c2cccc(C3(c4ccc(OS(=O)(=O)C5CC5)cc4)N=C(N)N4CCCN=C43)c2)c1 (stereo not shown) [Example 65, 4-[6-Amino-8-(3′-methoxybiphenyl-3-yl)-2,3,4,8-tetrahydroimidazo[1,5-a]pyrimidin-8-yl]phenyl cyclopropane sulfonate 0.75 acetate]",248 nM
7,"NC1=NC(c2ccc(OS(=O)(=O)C3CC3)cc2)(c2cccc(-c3cc(Cl)cc(Cl)c3)c2)C2=NCCCN12 (stereo not shown) [Example 66, 4-[6-Amino-8-(3′,5′-dichlorobiphenyl-3-yl)-2,3,4,8-tetrahydroimidazo[1,5-a]pyrimidin-8-yl]phenyl cyclopropanesulfonate 0.75 acetate]",66 nM
8,"NC1=NC(c2ccc(OS(=O)(=O)C3CC3)cc2)(c2cccc(-c3cccc(Cl)c3)c2)C2=NCCCN12 (stereo not shown) [Example 67, 4-[6-Amino-8-(3′-chlorobiphenyl-3-yl)-2,3,4,8-tetrahydroimidazo[1,5-a]pyrimidin-8-yl]phenyl cyclopropane sulfonate 0.75 acetate]",61 nM
9,"NC1=NC(c2ccc(OS(=O)(=O)C3CC3)cc2)(c2cccc(-c3cccnc3F)c2)C2=NCCCN12 (stereo not shown) [Example 69, 4-{6-Amino-8-[3-(2-fluoropyridin-3-yl)phenyl]-2,3,4,8-tetrahydroimidazo[1,5-a]pyrimidin-8-yl}phenyl cyclopropane sulfonate 0.75 acetate]",313 nM
10,"NC1=NC(c2ccc(OS(=O)(=O)C3CC3)cc2)(c2cccc(-c3cccc(C(F)(F)F)c3)c2)C2=NCCCN12 (stereo not shown) [Example 70, 4-{6-Amino-8-[3′-(trifluoromethyl)biphenyl-3-yl]-2,3,4,8-tetrahydroimidazo[1,5-a]pyrimidin-8-yl}phenyl cyclopropane sulfonate 0.75 acetate]",620 nM
11,"NC1=NC(c2ccc(OS(=O)(=O)C3CC3)cc2)(c2cccc(-c3cccc(Cl)c3F)c2)C2=NCCCN12 (stereo not shown) [Example 71, 4-[6-Amino-8-(3′-chloro-2′-fluorobiphenyl-3-yl)-2,3,4,8-tetrahydroimidazo[1,5-a]pyrimidin-8-yl]phenyl cyclopropane sulfonate 0.75 acetate]",390 nM
12,"NC1=NC(c2ccc(OS(=O)(=O)C3CC3)cc2)(c2cccc(-c3cc(Cl)ccc3Cl)c2)C2=NCCCN12 (stereo not shown) [Example 72, 4-[6-Amino-8-(2′,5′-dichlorobiphenyl-3-yl)-2,3,4,8-tetrahydroimidazo[1,5-a]pyrimidin-8-yl]phenyl cyclopropane sulfonate 0.5 acetate]",644 nM
13,"COc1cccc(-c2cccc(C3(c4ccc(OS(C)(=O)=O)cc4)N=C(N)N4CCN=C43)c2)c1 (stereo not shown) [Example 74, 4-[5-Amino-7-(3′-methoxybiphenyl-3-yl)-2,7-dihydro-3H-imidazo[1,5-a]imidazol-7-yl]phenyl methanesulfonate 0.25 acetate]",449 nM
14,"CS(=O)(=O)Oc1ccc(C2(c3cccc(-c4cccc(Cl)c4)c3)N=C(N)N3CCN=C32)cc1 (stereo not shown) [Example 76, 4-[5-Amino-7-(3′-chlorobiphenyl-3-yl)-2,7-dihydro-3H-imidazo[1,5-a]imidazol-7-yl]phenyl methanesulfonate 0.5 acetate]",226 nM
15,"CS(=O)(=O)Oc1ccc(C2(c3cccc(-c4cccnc4)c3)N=C(N)N3CCN=C32)cc1 (stereo not shown) [Example 77, 4-[5-Amino-7-(3-pyridin-3-ylphenyl)-2,7-dihydro-3H-imidazo[1,5-a]imidazol-7-yl]phenyl methanesulfonate 0.5 acetate]",1530 nM
16,"CS(=O)(=O)Oc1ccc(C2(c3cccc(-c4cccnc4F)c3)N=C(N)N3CCN=C32)cc1 (stereo not shown) [Example 78, 4-{5-Amino-7-[3-(2-fluoropyridin-3-yl)phenyl]-2,7-dihydro-3H-imidazo[1,5-a]imidazol-7-yl}phenyl methanesulfonate 0.5 acetate]",844 nM
17,"CS(=O)(=O)Oc1ccc(C2(c3cccc(-c4cc(Cl)cnc4F)c3)N=C(N)N3CCN=C32)cc1 (stereo not shown) [Example 79, 4-{5-Amino-7-[3-(5-chloro-2-fluoropyridin-3-yl)phenyl]-2,7-dihydro-3H-imidazo[1,5-a]imidazol-7-yl}phenyl methanesulfonate 0.5 acetate]",436 nM
18,"COc1cccc(-c2cccc(C3(c4ccc(OS(=O)(=O)C(C)C)cc4)N=C(N)N4CCN=C43)c2)c1 (stereo not shown) [Example 80, 4-[5-Amino-7-(3′-methoxybiphenyl-3-yl)-2,7-dihydro-3H-imidazo[1,5-a]imidazol-7-yl]phenyl propane-2-sulfonate 0.5 acetate]",1380 nM
19,"CC(C)S(=O)(=O)Oc1ccc(C2(c3cccc(-c4cc(Cl)cc(Cl)c4)c3)N=C(N)N3CCN=C32)cc1 (stereo not shown) [Example 81, 4-[5-Amino-7-(3′,5′-dichlorobiphenyl-3-yl)-2,7-dihydro-3H-imidazo[1,5-a]imidazol-7-yl]phenyl propane-2-sulfonate 0.5 acetate]",417 nM
20,"CC(C)S(=O)(=O)Oc1ccc(C2(c3cccc(-c4cccc(Cl)c4)c3)N=C(N)N3CCN=C32)cc1 (stereo not shown) [Example 82, 4-[5-Amino-7-(3′-chlorobiphenyl-3-yl)-2,7-dihydro-3H-imidazo[1,5-a]imidazol-7-yl]phenyl propane-2-sulfonate 0.5 acetate]",484 nM
21,"CC(C)S(=O)(=O)Oc1ccc(C2(c3cccc(-c4cccnc4)c3)N=C(N)N3CCN=C32)cc1 (stereo not shown) [Example 83, 4-[5-Amino-7-(3-pyridin-3-ylphenyl)-2,7-dihydro-3H-imidazo[1,5-a]imidazol-7-yl]phenyl propane-2-sulfonate 0.75 acetate]",2510 nM
22,"CC(C)S(=O)(=O)Oc1ccc(C2(c3cccc(-c4cccnc4F)c3)N=C(N)N3CCN=C32)cc1 (stereo not shown) [Example 84, 4-{5-Amino-7-[3-(2-fluoropyridin-3-yl)phenyl]-2,7-dihydro-3H-imidazo[1,5-a]imidazol-7-yl}phenyl propane-2-sulfonate 0.75 acetate]",2510 nM
23,"COc1cncc(-c2cccc(C3(c4ccc(OS(=O)(=O)C(C)C)cc4)N=C(N)N4CCN=C43)c2)c1 (stereo not shown) [Example 85, 4-{5-Amino-7-[3-(5-methoxypyridin-3-yl)phenyl]-2,7-dihydro-3H-imidazo[1,5-a]imidazol-7-yl}phenyl propane-2-sulfonate 0.5 acetate]",1030 nM
24,"NC1=NC(c2ccc(OS(=O)(=O)C(F)(F)F)cc2)(c2cccc(-c3cccc(Cl)c3)c2)C2=NCCN12 (stereo not shown) [Example 90, 4-[5-Amino-7-(3′-chlorobiphenyl-3-yl)-2,7-dihydro-3H-imidazo[1,5-a]imidazol-7-yl]phenyl trifluoromethanesulfonate 0.75 acetate]",113 nM
25,"NC1=NC(c2ccccc2)(c2cccc(Br)c2)C2=NCCCN12 (stereo not shown) [Example 98, 8-(3-Bromophenyl)-8-phenyl-2,3,4,8-tetrahydroimidazo[1,5-a]pyrimidin-6-amine]",727 nM
26,"NC1=NC(c2cccc(Br)c2)(c2cccc(OS(=O)(=O)C(F)(F)F)c2)C2=NCCCN12 (stereo not shown) [Example 113, 3-[6-Amino-8-(3-bromophenyl)-2,3,4,8-tetrahydroimidazo[1,5-a]pyrimidin-8-yl]phenyl trifluoromethanesulfonate]",1200 nM
27,"CS(=O)(=O)Oc1cccc(C2(c3cccc(-c4cc(C(F)(F)F)cc(C(F)(F)F)c4)c3)N=C(N)N3CCCN=C32)c1 (stereo not shown) [Example 114, 3-{6-Amino-8-[3′,5′-bis(trifluoromethyl)biphenyl-3-yl]-2,3,4,8-tetrahydroimidazo[1,5-a]pyrimidin-8-yl}phenyl methanesulfonate]",246 nM
